Blank lines part the entries; values can stand above or below the molecule they belong to.
Assays:
[1] = 25° C.; as quoted by NIST reference database 46; cited from earlier work
[2] = Visual assessment of insulin lispro (100 U/ml) formulations with 0.4 mM EDTA and different surfactants after storage; type: physicochemical; details: insulin lispro 100 U/ml with 0.4 mM EDTA; for effect of surfactant on precipitation: 30° C. for 4 weeks
Method: (§1) European Pharmacepoeia Monograph (Particulate Contamination: Visible Particles).
(§2) The presence of any particles is recorded.
The effect of different surfactants was tested on stability of insulin lispro (100 U/ml) in the presence of 0.4 mM EDTA. The visual assessment method described in General Methods was used.

[3] = Size exclusion chromatography main peak of insulin lispro formulations after storage; type: physicochemical; details: insulin lispro 100 U/ml with 0.4 mM EDTA; 30° C. for 4 weeks
[4] = Visual Assessment Scoring Method A, insulin aspart (100 U/ml) with 22 mM sodium citrate, storage at 30° C.; type: physicochemical
Method: as §1, §2
Visual Assessment Scoring Method A
Visual score 1: clear solution free of particles
Visual score 2: slight particle formation
Visual score 3: more significant precipitation

[5] = Visual Assessment Scoring Method B, insulin aspart (100 U/ml) with trisodium citrate, L-histidine or pyrophosphate, storage at 30° C.; type: physicochemical
Method: as §1, §2
(§3) Visual Assessment Scoring Method B
(§4) Visual score 1: Clear solution, virtually free of particles
(§5) Visual score 2: ˜5 very small particles
(§6) Visual score 3: ˜10-20 very small particles
(§7) Visual score 4: 20-50 particles, including larger particles
(§8) Visual score 5: >50 particles, including larger particles

[6] = Visual Assessment Scoring Method B, insulin aspart (1000 U/ml) with trisodium citrate, L-histidine or pyrophosphate; type: physicochemical
Method: as §1, §2, §3, §4, §5, §6, §7, §8

[7] = Visual Assessment Scoring Method B, insulin aspart (1000 U/ml) with different concentrations of citric acid and polysorbate 80; type: physicochemical; details: insulin aspart 1000 U/ml with citric acid 44-88 mM
Method: as §1, §2, §3, §4, §5, §6, §7, §8
The stability of insulin aspart (1000 U/ml) was investigated in the presence of different concentrations of citric acid and different concentrations of polysorbate 80. […] Three concentrations of citric acid (44, 66 and 88 mM) and four concentrations of each non-ionic surfactant were tested as well as corresponding surfactant-free compositions.

[8] = Visual Assessment Scoring Method B, insulin lispro (100 U/ml) with citric acid, storage at indicated temperatures; details: insulin lispro 100 U/ml with citric acid 22 mM
Description: The apparatus required consists of a viewing station comprising: • a matt black panel of appropriate size held in a vertical position • a non-glare white panel of appropriate size held in a vertical position next to the black panel • an adjustable lampholder fitted with a suitable, shaded, white-light source and with a suitable light diffuser (a viewing illuminator containing two 13 W fluorescent tubes, each 525 mm in length, is suitable).
Any adherent labels are removed from the container and the outside washed and dried. The container is gently swirled or inverted, ensuring that air bubbles are not introduced, and observed for about 5 s in front of the white panel. The procedure is repeated in front of the black panel. The presence of any particles is recorded.
Whilst the particles in samples with visual scores 4 and 5 are clearly detectable on casual visual assessment under normal light, samples with visual score 1-3 generally appear as clear solutions on the same assessment. Samples with visual scores 1-3 are considered to be “Pass”; samples with visual score 4-5 are considered to be “Fail”.
Stability of insulin lispro (100 U/ml) was investigated in formulations comprising citric acid (22 mM), both in the presence and in the absence of polysorbate 80.

Molecule: O=C(O)CN(CCN(CC(=O)O)CC(=O)O)CC(=O)O [EDTA, ethylenediaminetetraacetate]
- log K metal binding stability constant with respect to zinc binding [1]: 14.5

Molecule: O=C(O)CC(O)(CC(=O)O)C(=O)O [citrate]
- log K metal binding stability constant with respect to zinc binding [1]: 4.93

- effect of surfactant on precipitation [2]: prevented precipitation
- effect of surfactant on reduction in size of the main peak on SEC and RP-HPLC chromatograms [3]: did not prevent
Molecule: CCCCCCCCCCCCC[N+](C)(C)Cc1ccccc1 [benzalkonium chloride]

Molecule: N[C@@H](Cc1c[nH]cn1)C(=O)O [histidine]
- log K metal binding stability constant with respect to zinc binding [1]: 6.51

- effect of surfactant on particle formation rate [5]: stabilising effect
- effect of surfactant on rate of particle formation [6]: stabilising effect
Molecule: polyoxyethylene (20) sorbitan monooleate [polysorbate 80]
- stability after storage at 30° C. for 4 weeks ([2]; visual, SEC and RP-HPLC taken together): almost comparable with the EDTA-free control
- effect of surfactant on rate of particle formation [4]: considerable reduction in the rate of particle formation
- effect of surfactant on rate of particle formation [7]: reduction in the rate of particle formation
- effect of surfactant on destabilising effect of citric acid [8]: appeared to mitigate the destabilising effect

Molecule: O=P(O)(O)OP(=O)(O)O [pyrophosphate]
- log K metal binding stability constant with respect to zinc binding [1]: 8.71

Molecule: CC(C)(C)CC(C)(C)c1ccc(OCCOCC[N+](C)(C)Cc2ccccc2)cc1 [benzethonium chloride]
- effect of surfactant on precipitation [2]: prevented precipitation
- effect of surfactant on reduction in size of the main peak on SEC and RP-HPLC chromatograms [3]: did not prevent

Molecule: O=C(O)CN(CCOCCOCCN(CC(=O)O)CC(=O)O)CC(=O)O [EGTA, ethyleneglycoltetraacetate]
- log K metal binding stability constant with respect to zinc binding [1]: 12.6

Molecule: polyoxyethylene (20) sorbitan monolaurate [Polysorbate 20]
- effect of surfactant on particle formation rate [5]: not effective at all
- effect of surfactant on destabilising effect of citric acid [8]: notably weaker than that of polysorbate 80

- effect of surfactant on particle formation rate [5]: worse than that of polysorbate 80
Molecule: poloxamer 188
- effect of surfactant on destabilising effect of citric acid [8]: notably weaker than that of polysorbate 80

- effect of surfactant on precipitation [2]: prevented precipitation
- effect of surfactant on reduction in size of the main peak on SEC and RP-HPLC chromatograms [3]: did not prevent
Molecule: CCCCCCCCCCCCO[C@@H]1O[C@H](CO)[C@@H](O[C@H]2O[C@H](CO)[C@@H](O)[C@H](O)[C@H]2O)[C@H](O)[C@H]1O [dodecyl maltoside]
